Laboratory results published in patent US6906205B2, “Spiro and dispiro 1,2,4-trioxolane antimalarials” (Medicines for Malaria Venture MMV, priority 2002, dated 2005).
In brackets after ≈: the same amount, converted by molar mass.

Legend:
[1] = system: ANKA strain of Plasmodium berghei; experiment: single dose ED50/ED90/ED99 determinations in infected mice; format: in vivo; conditions: single dose po in SSV, mice, percent reduction in parasitemia on day three post-infection
Method: In the single dose ED50/ED90/ED99 determinations, Moro SPF or NMRI mice (group of three) infected with the ANKA strain of Plasmodium berghei were treated on day one post-infection. […] The SSV consists of 0.5% w/v CMC, 0.5% v/v benzyl alcohol, 0.4% v/v Tween 80, and 0.9% w/v sodium chloride in water. Antimalarial activity was measured by percent reduction in parasitemia on day three post-infection. The ED50/ED90 values were calculated by nonlinear fitting.

[2] = system: ANKA strain of P. berghei; experiment: single dose STI in vivo screen in infected mice; design: species or system Plasmodium berghei; conditions: for Activity (%) 3 mg/kg SSV po: single 3 mg/kg po in SSV
How it was run: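 Groups of 3-5 Moro SPF or NMRI mice infected with the ANKA strain of P. berghei received a single dose of trioxolane on day one post-infection. The compound was given in 3% ethanol and 7% Tween 80 or in SSV (0.5% w/v CMC, 0.5% v/v benzyl alcohol, 0.4% v/v Tween 80, 0.9% w/v sodium chloride in water). Antimalarial activity was scored as percent reduction in parasitemia on day three and as survival time versus untreated controls. Survival to day 30 counted as cure.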

P. berghei ANKA strain = experiment: treatment: 3x3 mg/kg and 3x1 mg/kg po divided doses in infected mice; format: in vivo, Plasmodium berghei; conditions: for infected mice cured: 3×3 mg/kg po on days 1, 2, 3 post-infection; for infected mice cured / activity (percent reduction of parasitemia): SSV; for activity (percent reduction of parasitemia): 3×1 mg/kg po on days 1, 2, 3 post-infection; for Activity (%) p.o. SSV: percent reduction of parasitemia day 4
Method: Moro NMRI male mice (Fü Albino specific pathogen free) weighing 18±2 g were infected intravenously (i.v.) with 2×10^7 P. berghei ANKA strain-infected erythrocytes from donor mice on day 0 of the experiment. From donor mice with circa 30% parasitemia, heparinized blood was taken and diluted in physiological saline to 10^8 parasitized erythrocytes per ml. An aliquot (0.2 ml) of this suspension was injected i.v. into experimental and control groups of mice. In untreated control mice, parasitemia rose regularly to 40 to 50% by day 3 post-infection and 70 to 80% by day 4 post-infection. The mice died between days 5 and 7 post-infection. Throughout the experiments, mice were kept in groups of three or five animals in Makrolon type II cages in an air-conditioned animal room at 22 to 23° C. A diet with p-aminobenzoic acid (PABA) of 45 mg (NAFAG FUTTER© food N^o 9009 PAB-45) per kg of body weight, and tap water is available ad libitum.
OZ compounds were prepared at an appropriate concentration, either as a solution or a suspension containing SSV (0.5% w/v CMC, 0.5% v/v benzyl alcohol, 0.4% v/v Tween 80, and 0.9% w/v sodium chloride in water). They were administered per os (p.o.) in a total volume of 0.01 ml per gram of mouse. The activity of the compound was determined by a variety of methods outlined in subsequent sections. Survival time was also recorded, and survival to day 30 post-infection was considered to be a cure.
The second experiment consists of administration of divided 3×3 mg/kg and 3×1 mg/kg po doses administered on days 1, 2, and 3 post-infection. On day 4 post-infection, blood smears of all animals were prepared and stained with Giemsa. Parasitemia was determined microscopically, and the difference between the mean value of the control group (taken as 100%) and those of the experimental groups was calculated and expressed as percent reduction. Compounds were administered orally in the SSV vehicle.

[3] = system: P. falciparum K1 strain (Thailand resistant to chloroquine); experiment: semiautomated microdilution assay, [3H]-hypoxanthine incorporation, K1 strain; format: cell-based, Plasmodium falciparum; conditions: K1 strain, 72 h incubation
How it was run: (§1)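 Intraerythrocytic stages from unsynchronised stock cultures are exposed to test compounds in a semiautomated microdilution format, and fifty percent inhibitory concentrations are then fitted by logit regression.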

[4] = system: Schistosoma mansoni 21-day-old schistosomules; experiment: effect on 21-day-old schistosomules in mice; format: in vivo; conditions: single 200 mg/kg per os, female mice
Method: All groups were killed 4 weeks after treatment and the liver and intestine were removed and separated. The liver and intestine were compressed and alive male and female worms could be seen and counted. The effect of the compounds was evaluated by mean total and female worm burden.

[5] = system: P. falciparum NF54 strain (sensitive to standard antimalarials); experiment: semiautomated microdilution assay, [3H]-hypoxanthine incorporation, NF54 strain; format: cell-based, Plasmodium falciparum; conditions: NF54 strain, 72 h incubation
How it was run: as §1

[6] = system: Schistosoma mansoni adult schistosomes (49-day-old); experiment: effect on adult schistosomes (49-day-old) in mice; format: in vivo; conditions: single 400 mg/kg per os
Method: Mice were infected with 100 Schistosoma mansoni cercariae […]. Each group was treated per os with OZ compounds at single doses of 200, 400, and 600 mg/kg. […] All groups were killed 4 weeks after treatment and the liver and intestine were removed and separated. The liver and intestine were compressed and alive male and female worms could be seen and counted.

[7] = percent reduction in parasitemia day 3 post-infection
[8] = percent reduction in parasitemia day 3 post-infection, single 10 mg/kg po in SSV
[9] = 3 × 1 mg/kg days 1, 2, 3 post-infection
[10] = 3 × 3 mg/kg days 1, 2, 3 post-infection

SMILES	infected mice cured (P. berghei ANKA strain)	Activity (%) 3 mg/kg SSV po [2, 7] [%]	Activity (%) 10 mg/kg SSV po [2, 8] [%]	Survival (days) p.o. SSV (P. berghei ANKA strain; [9]) [days]	Activity (%) p.o. SSV (P. berghei ANKA strain; [9]) [%]	Survival (days) p.o. SSV (P. berghei ANKA strain; [10]) [days]	Activity (%) p.o. SSV (P. berghei ANKA strain; [10]) [%]	also measured
C[C@H]1[C@@H](OCc2ccc(C(=O)O)cc2)O[C@@H]2O[C@@]3(C)CC[C@H]4[C@H](C)CC[C@@H]1[C@@]24OO3 [Artelinate]	–	–	–	–	–	–	–	ED50 [1]: 4.8 mg/kg; ED90 [1]: 10 mg/kg; ED99 [1]: 18 mg/kg
NC[C@H]1CC[C@]2(CC1)OOC1(O2)C2CC3CC(C2)CC1C3 (stereo partly drawn) [OZ181]	–	–	–	–	–	–	–	ED50 [1]: 0.63 mg/kg; ED90 [1]: 1.8 mg/kg; ED99 [1]: 4.0 mg/kg; Activity (%) po ([2]; percent reduction in parasitemia day 3 post-infection, single 10 mg/kg po in 3% ethanol and 7% Tween 80, mice, 10 mg/kg): 99.98%; Activity (%) sc ([2]; percent reduction in parasitemia day 3 post-infection, single 10 mg/kg sc in 3% ethanol and 7% Tween 80, mice): 100%; Activity (%) SSVpo ([2]; percent reduction in parasitemia day 3 post-infection, single po dose in standard suspending vehicle (SSV), mice): 99.91%; Survival (days) po ([2]; single 10 mg/kg po in 3% ethanol and 7% Tween 80, untreated control 5.6 ± 0.3, 10 mg/kg): 9.0 days; Survival (days) sc ([2]; single 10 mg/kg sc in 3% ethanol and 7% Tween 80, untreated control 5.6 ± 0.3, 10 mg/kg): 11.0 days; Survival (days) SSVpo ([2]; single po dose in SSV, untreated control 5.6 ± 0.3): 10.0 days
c1cc(OC[C@H]2CC[C@]3(CC2)OO[C@]2(O3)C3CC4CC(C3)CC2C4)ccn1 [OZ301]	⅕	97	100	–	–	–	–	–
O=C(NC[C@H]1CC[C@]2(CC1)OO[C@]1(O2)C2CC3CC(C2)CC1C3)N1CCNCC1 [OZ329]	⅖	–	–	–	–	–	–	activity (percent reduction of parasitemia) (P. berghei ANKA strain): greater than 99%; IC50 (ng/ml) K1 [3]: 0.43 ng/mL (≈ 1.06 nM); % reduction of schistosomule growth at day 21 after per os application of 200 mg/kg, FWR (%) [4]: 90%; % reduction of schistosomule growth at day 21 after per os application of 200 mg/kg, TWR (%) [4]: 90%; IC50 (ng/ml) NF54 [5]: 0.68 ng/mL (≈ 1.68 nM); % reduction of adult worms growth at day 49 after per os application of 400 mg/kg, TWR (%) [6]: 15%; adult worms at day 49, per os 400 mg/kg, DEAD WORM (%) [6]: 6%
NCCC(=O)NC[C@H]1CC[C@]2(CC1)OO[C@]1(O2)C2CC3CC(C2)CC1C3 [OZ336]	–	98	99.93	–	–	–	–	activity (percent reduction of parasitemia) (P. berghei ANKA strain): greater than 99%; Survival (days) 10 mg/kg SSV po ([2]; single 10 mg/kg po in SSV): 9.2 days
NC1CCN(C(=O)C[C@H]2CC[C@]3(CC2)OO[C@]2(O3)C3CC4CC(C3)CC2C4)CC1 [OZ339]	⅗	99.65	99.95	–	–	–	–	–
Oc1ccc(C2CCC3(CC2)OOC2(O3)C3CC4CC(C3)CC2C4)cc1 (stereo not drawn) [compound 288]	–	–	–	8.4	49	10.2	99	–
CCOC(=O)CNCC1CCC2(CC1)OOC1(O2)C2CC3CC(C2)CC1C3.CS(=O)(=O)O (stereo not drawn) [compound 290]	–	–	–	6.8	14	10.6	93	–
O=C1CN(C(=O)CC2CCC3(CC2)OOC2(O3)C3CC4CC(C3)CC2C4)CCN1 (stereo not drawn) [compound 296]	–	–	–	7.8	49	9.4	94	–
